These are literature values, as cited in patent US11859018B2, “Peptoid-based chelating ligands for selective metal chelation” (TRIAD National Security, LLC., priority 2018, dated 2024).

As for `O=C(N[C@H]1COC(=O)[C@@H](NC(=O)c2cccc(O)c2O)COC(=O)[C@@H](NC(=O)c2cccc(O)c2O)COC1=O)c1cccc(O)c1O` [enterobactin], the “stability constant for the Fe(III) complex, Log(Kβ)” value was 49.
